Data set [1] can be described thus: Stability in human blood (HPLC). In kind it is in vitro ADME. As to conditions: 50 μM added, 48-hour incubation. The method, then: Aliquots of 50 μM PP1 and FF in DMSO were added to 500 μl to heparinized human blood to a final concentration of 50 μM. Following incubation at 37° C. for the indicated time points, the samples were frozen at −80° C., and later prepared for HPLC-based detection of the compounds. Please note that FF is converted to FA in the presence of human blood. […] Data represent average values with standard deviation (n=3). panel B: Water solubility. FF and PP1, were added to water to a final concentration of 50 mM and sonicated in an ultrasonic bath (Branson 1510 Digital Heated Ultrasonic bath) for one hour at room temperature. The samples were then centrifuged for 10 minutes at 16000×g, and the supernatant filtered through 0.45 μm syringe filter. […] The PPAR transcriptional activity was determined in HepG2 cells by the JsTkpGL3 reporter plasmid, which contains a firefly luciferase gene driven by the PPRE, which consists of three copies of the J site from the apo-AII gene promoter. […] The luciferase activity was detected with Dual-Luciferase reporter assay system (Promega, Madison, Wis.), and the resulting luminescence measured with Synergy 2 microplate reader (BioTek, Winooski, Vt.). […]
In this experiment, 50 μM of PP1 and 50 μM of FF were incubated with human blood at […], at indicated time points. […] In contrast, nearly 25 μM of PP1 was still detected at the 48-hour time point (FIG. 4A; left panel).

Data set [2] deals with LN-229 human glioblastoma cells. As to conditions: for % cell death: 50 μM (single dose).
The next data set concerns LN-229 cells. Nature of the data set: Cell morphology, peroxisome accumulation in LN-229. Type of data set: cell-based, human. The conditions noted are these: DMEM 1 g/L glucose, 10% FBS. An excerpt: Red arrows indicated accumulation of peroxisomes (black dot-like structures) around the nucleus in PP3-treated cells but not in control (DMSO). (LN229 cells, DMEM 1 g/L glucose 10% FBS P/S).

Data set [3] can be described thus: Stability of stock solution in DMSO. Type of data set: physicochemical.
In data set [4] the test system is PPAR responsive elements (PPRE). Nature of the data set: PPAR luciferase assay (PPRE reporter) in HepG2 cells. Type of data set: cell-based. As to conditions: 25 μM, 24 hrs. The method, then:
Aliquots of 50 μM PP1 and FF in DMSO were added to 500 μl to heparinized human blood to a final concentration of 50 μM. Following incubation at 37° C. for the indicated time points, the samples were frozen at −80° C., and later prepared for HPLC-based detection of the compounds. Please note that FF is converted to FA in the presence of human blood. […] Data represent average values with standard deviation (n=3). panel B: Water solubility. FF and PP1, were added to water to a final concentration of 50 mM and sonicated in an ultrasonic bath (Branson 1510 Digital Heated Ultrasonic bath) for one hour at room temperature. The samples were then centrifuged for 10 minutes at 16000×g, and the supernatant filtered through 0.45 μm syringe filter. Water solubilized PP1 and FF were subsequently processed for HPLC analysis (see Methods). Data represent average values with standard deviation (n=3). panel C: Effects of PP compounds on PPAR responsive elements (PPRE). The PPAR transcriptional activity was determined in HepG2 cells by the JsTkpGL3 reporter plasmid, which contains a firefly luciferase gene driven by the PPRE, which consists of three copies of the J site from the apo-AII gene promoter. To normalize for efficiency of transfection the cells were additionally transfected with the pSV40-GLuc (New England Biolabs, Ipswich, Mass.) control plasmid. […] The luciferase activity was detected with Dual-Luciferase reporter assay system (Promega, Madison, Wis.), and the resulting luminescence measured with Synergy 2 microplate reader (BioTek, Winooski, Vt.). Data represent average values with standard deviation (n=6).
PPAR Luciferase Assay—The PPAR transcriptional activity was determined by utilizing the JsTkpGL3 reporter plasmid, which contains a firefly luciferase gene driven by the PPAR responsive element (PPRE), which consists of three copies of the J site from the apo-AII gene promoter. Together with JsTkpGL3 plasmid HepG2 cells were transfected with pSV40-GLuc (New England Biolabs, Ipswich, Mass.) control plasmid expressing Gaussia luciferase under the control of the constitutive SV40 early promoter to normalize for efficiency of transfection. […] The luciferase activity was detected with Dual-Luciferase reporter assay system (Promega, Madison, Wis.), and the resulting luminescence measured with Synergy 2 microplate reader (BioTek, Winooski, Vt.).

A short description of data set [5]: Temozolomide pharmacokinetics and CNS penetration (literature). As to conditions: from 20% of plasma concentration. In kind it is in vivo, human. From the text: An efficient treatment of GBM is difficult to develop for a series of reasons. First, GBM is characterized by many dysregulated pathways that can hardly be all blocked and repaired at the same time with a single therapy [Alifieris, C.; Trafalis, D. T. “Glioblastoma multiforme: pathogenesis and treatment” Pharmacol. Ther. 2015, 152, 63-82.]. Second, GBM partly consists of infiltrating cells that cannot easily be all removed by surgery. Third, GBM early diagnosis is not carried out routinely. Sensitive imaging techniques, such as MRI are still too expensive to be carried out on a regular basis over the whole population. Fourth, the optimization of a clinical protocol for GBM treatment requires the use of an accurate and representative preclinical GBM model. Currently used mouse and rat models are not appropriate because their tumors are typically ˜10^3-10^4 smaller than human GBM [Biasibetti, E.; Valazza, A.; Capucchio, M. T.; Annovazzi, L.; Battaglia. L.; Chirio, D.; Gallarate, M.; Mellai, M.; Muntoni, E.; Peira, E.; Riganti, C.; Schiffer, D.; Panciani, P.; Lanotte, M. “Comparison of Allogeneic and Syngeneic Rat Glioma Models by Using MRI and Histopathologic Evaluation” Comp. Med. 2017, 67, 147-156.]. […]

For data set [6] the following is noted: cited from earlier work.
The conditions of data set [7]: in vivo; cited from earlier work.

Entries after “also recorded” stand apart in the source; their conditions may differ. Read-outs that look alike come from different tables or passages of the source.

For `CC(C)OC(=O)C(C)(C)Oc1ccc(C(=O)c2ccc(Cl)cc2)cc1` [FF, fenofibrate, reference compound], in data set [1], the “conversion to FA in human blood” value is listed as “almost all FF was converted to FA”. Besides, the “% cell death” value in data set [2] (48 hours) is listed as 24+/−4%; in data set [2] (72 hours) it was 90+/−1%; in data set [2] (96 hrs), 99+/−1.2%.

For the molecule `CN(CC(O)C(O)C(O)C(O)CO)C(=O)C(C)(C)Oc1ccc(C(=O)c2ccc(Cl)cc2)cc1` [PP3, 2-[4-(4-chlorobenzoyl)phenoxy]-N,2-dimethyl-N-[(2S,3R,4R,5R)-2,3,4,5,6-pentahydroxyhexyl]propenamide], the “accumulation of peroxisomes” value with LN-229 cells is listed as “extensive accumulation of peroxisomes”. Also, in data set [3], the “stability dissolved in DMSO” value is listed as “quite unstable”. Also, in data set [2] (10 μM), the “cytostatic effect” value was “cytostatic activity”. For the same molecule, the “effect on PPAR responsive elements (PPRE)” value in data set [4] is reported as “does not repress PPAR responsive elements; also recorded: does not share this PPAR-inhibitory activity”.

For the molecule `Cn1nnc2c(C(N)=O)ncn2c1=O` [TMZ, temozolomide], the “experimentally estimated log BB (Brain-Blood Distribution)” value in data set [5] is reported as “around −0.7”. Further, the “concentration in brain and cerebrospinal fluid, % of the plasma concentration” value in data set [6] (35 patients with malignant gliomas) was “approximately 20%”. In addition, the elimination half-life entry in data set [6] (oral administration) is listed as “approximately 1.8 hours”.

On to `CC(C)(Oc1ccc(C(=O)c2ccc(Cl)cc2)cc1)C(=O)O` [FA, fenofibric acid], for which the “crossing of the blood brain tumor barrier (BBTB)” value in data set [7] is reported as “do not cross”.

Values taken from US20220304957A1, “ANTI-CANCER COMPOSITIONS AND METHODS OF USE” (Board of Supervisors of Louisiana State University and …, priority 2019, published 2022).
